Entries after “also recorded” stand apart in the source; their conditions may differ.
Key:
[1] = toxicity assessment by mouse weight loss after first vaccination; assay type: in vivo; conditions: for toxicity assessed by mouse weight loss: three-component vaccine, median percent weight loss
Experimental: (§1) Groups of five mice (C57BL/6J, female, 6-8 weeks of age) were vaccinated with a three-component vaccine consisting of MUC1-KLH ([…]) and OVA ([…]), or a four-component vaccine that also included GD3-KLH ([…]). Antigens were co-administered with the adjuvant of interest ([…]) or without adjuvant (no-adjuvant control) in phosphate buffered saline (PBS, […]) via subcutaneous injections on days 0, 7, and 14, followed by a booster on day 65. Mouse sera were collected at day 72 and antibody titers against each antigen were determined by ELISA. Statistical significance of each antibody response compared to the no-adjuvant control was assessed using a two-tailed unpaired Student's t-test with CI=95%. As an initial, general assessment of toxicity, mouse weight loss was monitored on days 0, 1, 2, 3, and 7 after the first vaccination. These animal experiments were conducted as described in MSKCC Institutional Animal Care and Use Committee (IACUC) protocol #97-11-051.

C57BL/6J mice [2] = assay: preclinical mouse vaccination model, three-component vaccine (MUC1-KLH, OVA), antibody titers by ELISA; assay type: in vivo; conditions: for antibody titers (anti-KLH, anti-MUC1, anti-OVA IgG): three-component vaccine MUC1-KLH + OVA, s.c. days 0, 7, 14, booster day 65, sera day 72
Experimental: A radioiodine (^131I) was introduced into the QS-21 saponin scaffold to enable in vivo biodistribution studies. The non-radiolabeled aryl iodide 6 (SQS-0-0-5-18) by acylation of amine 2 (SQS-0-0-5-11) was synthesized (FIG. 1B). Because no in vitro model exists to assess adjuvant activity, biological evaluation of aryl iodide 6 was carried out in a preclinical mouse vaccination model involving a multi-antigen formulation comprised of the immunogenic peptide MUC1 (prostate and breast cancer antigen, non-glycosylated tandem repeat) conjugated to the highly immunogenic KLH carrier protein (MUC1-KLH) and OVA, a reliable immunogen that induces both antibody and T-cell responses in mice. Antibody responses against each of the three antigens, co-administered with the adjuvant of interest, were determined by ELISA.
as §1

[3] = in vivo biodistribution of radioiodinated saponins; set-up: species or system mouse; conditions: with OVA, 24-96 h
Experimental: The aryl tin saponins (7, 9, 17, S9) were synthesized from the corresponding amine precursors (2, S4, 15, S8) by acylation with N-succinimidyl-4-(trimethylstannyl)benzoate 4 (Et3N, DMF, 21° C., 1-2.5 h). Radiolabeling was achieved by iodination of the aryl tin saponin (20 μg) with [^131I]—NaI and chloramine-T (methanol, 21° C., 1 min), followed by immediate HPLC purification. Solvents were removed by rotary evaporation at 35° C. and the radioiodinated probes were formulated in 0.9% saline for biodistribution studies. Co-elution of the radioiodinated probes with the corresponding cold saponins was used for quality control analysis.
Groups of five mice (naive, C57BL/6J female, 8-10 weeks of age) were injected subcutaneously with the radioiodinated saponin adjuvants of interest (˜[…]), the corresponding non-radiolabeled saponin ([…]), and OVA ([…]) in PBS ([…]). Mice were sacrificed at 24 h, 72 h, and 96 h post-injection. Tissues and organs were harvested and analyzed for distribution of radioactivity normalized to the weight of the organ (% ID/g, percent injected dose per gram). Statistical significance of the difference in recoveries (% ID/g) for the active and attenuated adjuvant was assessed for each tissue or organ using two-tailed unpaired Student's t-test with CI=95%.

C57BL/6J mice [4] = assay: preclinical mouse vaccination model, four-component vaccine (MUC1-KLH, OVA, GD3-KLH), antibody titers by ELISA; assay type: in vivo; conditions: 20 and 50 μg doses
Experimental: as §1
These saponin variants were evaluated with a four-component vaccine comprised of MUC1-KLH, OVA, and the poorly immunogenic glycolipid GD3 (melanoma, neuroblastoma, sarcoma antigen) conjugated to KLH (GD3-KLH) (FIGS. 5B-E; see FIG. 16 for full data with both 20 and 50 μg doses).

C57BL/6J mice [5] = assay: antibody subtyping of anti-MUC1 and anti-OVA IgG by class-specific ELISA; assay type: in vivo, mouse
Source text: Production of other mouse IgG subtypes, including IgG2a and IgG3, was low or negligible, as indicated by class-specific ELISA. Toxicity remained drastically lower for all four variants compared to NQS-21 and SQS-21 (FIG. 5f).

mice = assay: mouse vaccination with OVA antigen alone (FIG. 7B); assay type: in vivo; conditions: OVA (20 μg)
Experimental: FIG. 7A: Synthesis of negative control saponin 8 (SQS-0-3-7-18): (i) SOCl2, pyridine, CH2Cl2/DMF, 21° C., 2 h, 91%; (ii) 1. H2 (50 psi), Pd/C (Degussa), THF/EtOH (1:1), 21° C., 24 h; 2. TFA/H2O (4:1), 0° C., 3.3 h, RP-HPLC, 50% (2 steps); (iii) 4, Et3N, DMF, 21° C., 3 h, RP-HPLC, 68%; (iv) 5, Et3N, DMF, 21° C., 2.5 h, RP-HPLC, 53%. FIG. 7B: Biological evaluation of aryl iodide saponin 8 with OVA antigen. Mice were vaccinated with OVA (20 μg) according to the general procedure discussed herein. Median titers represented as red horizontal bars. Statistical significance compared to SQS-21 was assessed using two-tailed unpaired Student's t-test with CI=95%: *=0.01≤p≤0.05 (significant).
Groups of five mice (C57BL/6J, female, 6-8 weeks of age) were vaccinated with a three-component vaccine consisting of MUC1-KLH ([…]) and OVA ([…]), or a four-component vaccine that also included GD3-KLH (5 mg). […] Mouse sera were collected at day 72 and antibody titers against each antigen were determined by ELISA. Statistical significance of each antibody response compared to the no-adjuvant control was assessed using a two-tailed unpaired Student's t-test with CI=95%. As an initial, general assessment of toxicity, mouse weight loss was monitored on days 0, 1, 2, 3, and 7 after the first vaccination. […]

[6] = biodistribution of radioiodinated ovalbumin with and without adjuvant 6; assay type: in vivo, mouse; conditions: presence and absence of active adjuvant 6
Experimental: In a complementary experiment, the biodistribution of [^131I]-OVA in the presence and absence of active adjuvant 6 was examined (FIG. 10). […] Thus, the influence of 6 upon OVA antigen biodistribution could not be assessed effectively and an alternative experimental approach was required.
Radiolabeled ovalbumin was synthesized by treating 20 μg of ovalbumin with [^131I]—NaI and Chloramine-T in methanol. The reaction mixture was diluted with 2 mL phosphate buffered saline (PBS) followed by centrifugal filtration at 2800 rpm for 12 min using a 30 kDa molecular weight cutoff filter. This process was repeated twice and the concentrated compound was then formulated in 1 mL 0.9% saline for biodistribution studies.

Molecule: C[C@H]1O[C@@H](OC2C(O)C(NC(=O)CCCCCNC(=O)c3ccc(I)cc3)[C@H](CO)O[C@H]2OC(=O)[C@]23CCC(C)(C)CC2C2=CCC4C5(C)CC[C@H](O)C(C)(C)[C@@H]5CC[C@]4(C)[C@]2(C)CC3)C(O)C(O)C1O[C@@H]1OCC(O)C(O)C1O (stereo partly shown) [compound 18]
- toxicity assessed by mouse weight loss [1]: low toxicity
- antibody titers (anti-KLH, anti-MUC1, anti-OVA IgG) (C57BL/6J mice [2]): lower antibody titers against all three antigens compared to the parent quillaic acid derivative 16

Molecule: C[C@H]1O[C@@H](OC2C(O)C(NC(=O)CCCCCNC(=O)c3ccc(I)cc3)[C@H](CO)O[C@H]2OC(=O)C23CCC(C)(C)CC2C2=CCC4C5(C)CC[C@H](OC6OC(C(=O)O)[C@@H](O)[C@H](OC7OC[C@@H](O)[C@H](O)[C@@H]7O)[C@@H]6O[C@@H]6OC(CO)C(O)[C@@H](O)[C@@H]6O)[C@](C)(C=O)[C@@H]5CC[C@]4(C)[C@]2(C)C[C@@H]3O)C(O)C(O)C1O[C@@H]1OCC(O)C(O)C1O (stereo partly shown) [compound 6]
- localization and retention at injection site and lymph nodes (conclusion) [3]: localizes to and is retained at the injection site and lymph nodes
- toxicity assessed by mouse weight loss [1]: reduced toxicity compared to QS-21
- antibody titers (anti-KLH, anti-MUC1, anti-OVA IgG) (C57BL/6J mice [2]): antibody titers comparable to both NQS-21

Molecule: C[C@H]1O[C@@H](OC2C(O)C(NC(=O)CCCCCNC(=O)c3ccc(I)cc3)[C@H](CO)O[C@H]2OC(=O)C23CCC(C)(C)CC2C2=CCC4C5(C)CC[C@H](O)[C@](C)(C=O)[C@@H]5CC[C@]4(C)[C@]2(C)CC3)C(O)C(O)C1O[C@@H]1OCC(O)C(O)C1O (stereo partly shown) [compound 21]
- antibody responses (anti-KLH, anti-MUC1, anti-OVA IgG, anti-GD3 IgM and IgG) (C57BL/6J mice [4]): lower antibody responses in all cases except the anti-GD3 IgG response

Molecule: C[C@@H]1O[C@@H](O[C@H]2[C@H](OC(=O)[C@]34CCC(C)(C)C[C@H]3C3=CC[C@@H]5[C@@]6(C)CC[C@H](O)[C@@](C)(C=O)[C@@H]6CC[C@@]5(C)[C@]3(C)C[C@H]4O)O[C@H](CO)[C@H](NC(=O)CCCCCNC(=O)c3ccc(I)cc3)[C@@H]2O)[C@H](O)[C@H](O)[C@H]1O[C@@H]1OC[C@@H](O)[C@H](O)[C@H]1O [compound 16]
- toxicity assessed by mouse weight loss [1]: much lower toxicity than NQS-21 and SQS-21
- KLH and MUC1 antibody responses (C57BL/6J mice [2]; three-component vaccine, exception anti-MUC1 titers at lower dose (20 μg)): comparable to those of parent aryl iodide 6, NQS-21, and SQS-21

Molecule: C[C@@H]1O[C@@H](O[C@H]2[C@H](OC(=O)[C@]34CCC(C)(C)C[C@H]3C3=CC[C@@H]5[C@@]6(C)CC[C@H](O)[C@@](C)(CO)[C@@H]6CC[C@@]5(C)[C@]3(C)CC4)O[C@H](CO)[C@H](NC(=O)CCCCCNC(=O)c3ccc(I)cc3)[C@@H]2O)[C@H](O)[C@H](O)[C@H]1O[C@@H]1OC[C@@H](O)[C@H](O)[C@H]1O [compound 22]
- antibody responses (anti-KLH, anti-MUC1, anti-OVA IgG, anti-GD3 IgM and IgG) (C57BL/6J mice [4]): lower antibody responses in all cases except the anti-GD3 IgG response

Molecule: C[C@H]1O[C@@H](OC2C(O)C(NC(=O)CCCCCNC(=O)c3ccc(I)cc3)[C@H](CO)O[C@H]2OC(=O)[C@]23CCC(C)(C)CC2C2=CCC4C5(C)CC[C@H](O)[C@](C)(CO)[C@@H]5CC[C@]4(C)[C@]2(C)CC3O)C(O)C(O)C1O[C@@H]1OCC(O)C(O)C1O (stereo partly shown) [compound 19]
- antibody responses (anti-KLH, anti-MUC1, anti-OVA IgG, anti-GD3 IgM and IgG) (C57BL/6J mice [4]): antibody titers slightly below those of echinocystic acid derivative 20; also recorded: antibody responses similar to the complete, branched trisaccharide-containing saponin 6
- IgG subtypes of anti-MUC1 and anti-OVA antibodies (C57BL/6J mice [5]): significant bias toward the mouse IgG1 and IgG2b subtype

Molecule: C[C@H]1O[C@@H](OC2C(O)C(NC(=O)CCCCCNC(=O)c3ccc(I)cc3)[C@H](CO)O[C@H]2OC(=O)C23CCC(C)(C)CC2C2=CCC4C5(C)CC[C@H](O)C(C)(C)[C@@H]5CC[C@]4(C)[C@]2(C)C[C@@H]3O)C(O)C(O)C1O[C@@H]1OCC(O)C(O)C1O (stereo partly shown) [compound 20]
- antibody responses (anti-KLH, anti-MUC1, anti-OVA IgG, anti-GD3 IgM and IgG) (C57BL/6J mice [4]): highest antibody responses to all four antigens; also recorded: immunostimulatory activity generally rivaling that of SQS-21
- toxicity (mouse weight loss) ([1]; four-component vaccine, one week after first injection): dramatically reduced toxicity compared to the natural product
- IgG subtypes of anti-MUC1 and anti-OVA antibodies (C57BL/6J mice [5]): significant bias toward the mouse IgG1 and IgG2b subtype

Molecule: CC1(C)CCC2(C(=O)NCCNC(=O)c3ccc(I)cc3)C(C1)C1=CCC3C4(C)CC[C@H](OC5OC(C(=O)O)[C@@H](O)[C@H](OC6OC[C@@H](O)[C@H](O)[C@@H]6O)[C@@H]5OC5OC(CO)[C@H](O)[C@H](O)[C@@H]5O)[C@](C)(C=O)[C@@H]4CC[C@]3(C)[C@]1(C)C[C@@H]2O (stereo partly shown) [compound 8]
- adjuvant activity with OVA antigen (mice): poor adjuvant activity

B1: [131I]-OVA: radioiodinated ovalbumin antigen (protein, UniProt P01012 2-386, looked up)
Ovalbumin: GSIGAASMEFCFDVFKELKVHHANENIFYCPIAIMSALAMVYLGAKDSTRTQINKVVRFDKLPGFGDSIEAQCGTSVNVHSSLRDILNQITKPNDVYSFSLASRLYAEERYPILPEYLQCVKELYRGGLEPINFQTAADQARELINSWVESQTNGIIRNVLQPSSVDSQTAMVLVNAIVFKGLWEKAFKDEDTQAMPFRVTEQESKPVQMMYQIGLFRVASMASEKMKILELPFASGTMSMLVLLPDEVSGLEQLESIINFEKLTEWTSSNVMEERKIKVYLPRMKMEEKYNLTSVLMAMGITDVFSSSANLSGISSAESLKISQAVHAAHAEINEAGREVVGSAEAGVDAASVSEEFRADHPFLFCIKHIATNAVLFFGRCVSP
modifications: 131I radiolabel
notes: radioiodinated ovalbumin antigen
- thyroid uptake of [131I]-OVA [6]: thyroid uptake was also high

From patent US12187755B2, “Minimal saponin analogues, synthesis and use thereof” (MEMORIAL SLOAN-KETTERING CANCER CENTER, priority 2014, dated 2025)
